Patent publication US11117892B2, “Pyrrolo-pyridine derivative compound, method for preparing same, and pharmaceutical composition containing same as active ingredient for prevention or treatment of protein kinase-related diseases” (DAEGU-GYEONGBUK MEDICAL INNOVATION FOUNDATION, priority 2017, dated 2021)

What was measured:
Experiment in all cases: scanMAX Kinase assay panel
Format in all cases: binding
Conditions in all cases: read-out: % control
EPHA3 = EPHA3 (Homo sapiens (Human), UniProt P29320)
In short: (§1)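 The % control figures are compound readings scaled so that DMSO-treated wells correspond to 100% and the positive control corresponds to 0%. They were obtained on the scanMAX kinase panel.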

PRKG2 = PRKG2 (Homo sapiens (Human), UniProt Q13237)
In short: as §1

RET(M918T) = RET(M918T) (Homo sapiens (Human), UniProt P07949, M918T)
In short: as §1

CAMK1D = CAMK1D (Homo sapiens (Human), UniProt Q8IU85)
In short: as §1

MKNK1 = MKNK1 (Homo sapiens (Human), UniProt Q9BUB5)
In short: as §1

CAMK2D = CAMK2D (Homo sapiens (Human), UniProt Q13557)
In short: as §1

MAP3K4 = MAP3K4 (Homo sapiens (Human), UniProt Q9Y6R4)
In short: as §1

PIK3CA(E542K) = PIK3CA(E542K) (Homo sapiens (Human), UniProt P42336, E542K)
In short: as §1

IKK-beta = IKK-beta (Homo sapiens (Human), UniProt O14920)
In short: as §1

NIK = NIK (Homo sapiens (Human), UniProt Q99558)
In short: as §1

EPHA8 = EPHA8 (Homo sapiens (Human), UniProt P29322)
In short: as §1

PRKX = PRKX (Homo sapiens (Human), UniProt P51817)
In short: as §1

MEK4 = MEK4 (Homo sapiens (Human), UniProt P45985)
In short: as §1

PIK3CA(I800L) = PIK3CA(I800L) (Homo sapiens (Human), UniProt P42336, I800L)
In short: as §1

ASK1 = ASK1 (Homo sapiens (Human), UniProt Q99683)
In short: as §1

PIM2 = PIM2 (Homo sapiens (Human), UniProt Q9P1W9)
In short: as §1

SGK2 = SGK2 (Homo sapiens (Human), UniProt Q9HBY8)
In short: as §1

ERK3 = ERK3 (Homo sapiens (Human), UniProt Q16659)
In short: as §1

CSF1R-autoinhibited = CSF1R-autoinhibited (Homo sapiens (Human), UniProt P07333)
In short: as §1

WNK4 = WNK4 (Homo sapiens (Human), UniProt Q96J92)
In short: as §1

FLT3 = FLT3 (Homo sapiens (Human), UniProt P36888)
In short: as §1

TYRO3 = TYRO3 (Homo sapiens (Human), UniProt Q06418)
In short: as §1

ADCK3 = ADCK3 (Homo sapiens (Human), UniProt Q8NI60)
In short: as §1

RIOK1 = RIOK1 (Homo sapiens (Human), UniProt Q9BRS2)
In short: as §1

OSR1 = OSR1 (Homo sapiens (Human), UniProt O95747)
In short: as §1

MET(M1250T) = MET(M1250T) (Homo sapiens (Human), UniProt P08581, M1250T)
In short: as §1

PIK3CB = PIK3CB (Homo sapiens (Human), UniProt P42338)
In short: as §1

PRKCD = PRKCD (Homo sapiens (Human), UniProt Q05655)
In short: as §1

TNK1 = TNK1 (Homo sapiens (Human), UniProt Q13470)
In short: as §1

KIT(D816V) = KIT(D816V) (Homo sapiens (Human), UniProt P10721, D816V)
In short: as §1

SYK = SYK (Homo sapiens (Human), UniProt P43405)
In short: as §1

MLK1 = MLK1 (Homo sapiens (Human), UniProt P80192)
In short: as §1

CAMKK1 = CAMKK1 (Homo sapiens (Human), UniProt Q8N5S9)
In short: as §1

MST3 = MST3 (Homo sapiens (Human), UniProt Q9Y6E0)
In short: as §1

LCK = LCK (Homo sapiens (Human), UniProt P06239)
In short: as §1

CDK4-cyclinD1 = CDK4-cyclinD1 (Homo sapiens (Human), UniProt P11802)
In short: as §1

BRSK2 = BRSK2 (Homo sapiens (Human), UniProt Q8IWQ3)
In short: as §1

CSNK1A1 = CSNK1A1 (Homo sapiens (Human), UniProt P48729)
In short: as §1

WEE1 = WEE1 (Homo sapiens (Human), UniProt P30291)
In short: as §1

Chain of RET(M918T) (P07949 29-1114 M918T): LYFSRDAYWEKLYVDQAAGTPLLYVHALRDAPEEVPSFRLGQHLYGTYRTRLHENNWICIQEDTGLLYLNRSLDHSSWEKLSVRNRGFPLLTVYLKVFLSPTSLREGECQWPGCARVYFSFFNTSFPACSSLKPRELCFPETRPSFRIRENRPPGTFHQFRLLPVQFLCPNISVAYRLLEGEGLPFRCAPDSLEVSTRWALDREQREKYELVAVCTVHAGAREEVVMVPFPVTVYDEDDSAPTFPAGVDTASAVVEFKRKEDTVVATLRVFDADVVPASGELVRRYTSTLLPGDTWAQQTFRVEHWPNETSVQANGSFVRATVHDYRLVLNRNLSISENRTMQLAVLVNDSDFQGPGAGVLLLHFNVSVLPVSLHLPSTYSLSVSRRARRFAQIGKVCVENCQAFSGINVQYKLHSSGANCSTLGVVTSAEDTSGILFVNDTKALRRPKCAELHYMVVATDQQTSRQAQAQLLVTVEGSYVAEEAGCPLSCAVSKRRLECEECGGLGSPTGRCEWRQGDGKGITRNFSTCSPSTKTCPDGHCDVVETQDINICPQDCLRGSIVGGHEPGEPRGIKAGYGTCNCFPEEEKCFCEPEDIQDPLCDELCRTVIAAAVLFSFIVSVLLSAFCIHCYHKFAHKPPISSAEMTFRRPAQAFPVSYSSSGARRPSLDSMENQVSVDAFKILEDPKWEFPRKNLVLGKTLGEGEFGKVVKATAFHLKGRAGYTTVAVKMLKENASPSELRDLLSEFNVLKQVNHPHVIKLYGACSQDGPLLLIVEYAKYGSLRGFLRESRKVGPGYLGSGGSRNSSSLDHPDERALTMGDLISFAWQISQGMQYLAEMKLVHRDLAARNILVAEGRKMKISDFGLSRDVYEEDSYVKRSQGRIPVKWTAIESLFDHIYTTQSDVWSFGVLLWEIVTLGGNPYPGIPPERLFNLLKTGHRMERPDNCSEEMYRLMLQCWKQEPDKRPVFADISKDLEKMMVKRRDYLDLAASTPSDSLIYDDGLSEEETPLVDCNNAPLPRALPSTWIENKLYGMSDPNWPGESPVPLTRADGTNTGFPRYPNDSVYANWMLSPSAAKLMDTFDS
Chain of PRKX (P51817 whole entry): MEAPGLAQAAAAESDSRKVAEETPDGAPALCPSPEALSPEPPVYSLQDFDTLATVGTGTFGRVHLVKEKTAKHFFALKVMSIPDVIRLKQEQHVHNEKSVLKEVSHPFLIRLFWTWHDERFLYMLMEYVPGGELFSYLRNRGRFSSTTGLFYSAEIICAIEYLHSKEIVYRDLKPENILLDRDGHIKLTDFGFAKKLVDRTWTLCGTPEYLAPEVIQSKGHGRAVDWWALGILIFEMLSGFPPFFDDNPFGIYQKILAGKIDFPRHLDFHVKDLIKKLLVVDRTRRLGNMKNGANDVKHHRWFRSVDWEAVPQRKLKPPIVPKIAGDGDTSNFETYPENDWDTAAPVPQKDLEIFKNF
Chain of MKNK1 (Q9BUB5 whole entry): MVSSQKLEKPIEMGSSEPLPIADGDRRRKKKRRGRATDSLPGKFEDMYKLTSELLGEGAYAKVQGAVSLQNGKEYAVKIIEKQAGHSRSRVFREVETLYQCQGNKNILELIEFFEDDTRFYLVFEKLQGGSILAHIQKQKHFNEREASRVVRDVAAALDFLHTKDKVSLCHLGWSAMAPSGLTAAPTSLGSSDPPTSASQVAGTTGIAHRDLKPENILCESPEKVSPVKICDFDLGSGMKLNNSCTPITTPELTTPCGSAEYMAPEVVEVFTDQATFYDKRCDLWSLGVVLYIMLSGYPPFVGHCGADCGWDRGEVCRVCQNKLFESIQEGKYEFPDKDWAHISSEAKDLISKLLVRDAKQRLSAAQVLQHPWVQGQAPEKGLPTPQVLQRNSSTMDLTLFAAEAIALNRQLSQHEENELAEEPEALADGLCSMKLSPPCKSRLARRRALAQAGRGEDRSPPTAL
Chain of LCK (P06239 whole entry): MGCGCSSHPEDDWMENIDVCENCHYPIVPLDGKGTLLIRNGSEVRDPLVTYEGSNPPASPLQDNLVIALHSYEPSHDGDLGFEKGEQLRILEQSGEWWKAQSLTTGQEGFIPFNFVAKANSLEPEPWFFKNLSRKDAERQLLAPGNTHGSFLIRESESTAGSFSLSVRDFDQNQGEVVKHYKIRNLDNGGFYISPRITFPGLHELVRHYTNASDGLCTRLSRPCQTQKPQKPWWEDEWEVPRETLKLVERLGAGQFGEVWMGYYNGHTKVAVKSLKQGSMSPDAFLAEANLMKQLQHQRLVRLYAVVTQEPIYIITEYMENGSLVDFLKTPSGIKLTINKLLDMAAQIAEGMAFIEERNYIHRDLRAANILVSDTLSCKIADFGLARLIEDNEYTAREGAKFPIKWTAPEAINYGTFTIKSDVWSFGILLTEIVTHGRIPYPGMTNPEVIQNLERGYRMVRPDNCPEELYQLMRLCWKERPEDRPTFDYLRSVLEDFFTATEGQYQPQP
Chain of CAMK1D (Q8IU85 whole entry): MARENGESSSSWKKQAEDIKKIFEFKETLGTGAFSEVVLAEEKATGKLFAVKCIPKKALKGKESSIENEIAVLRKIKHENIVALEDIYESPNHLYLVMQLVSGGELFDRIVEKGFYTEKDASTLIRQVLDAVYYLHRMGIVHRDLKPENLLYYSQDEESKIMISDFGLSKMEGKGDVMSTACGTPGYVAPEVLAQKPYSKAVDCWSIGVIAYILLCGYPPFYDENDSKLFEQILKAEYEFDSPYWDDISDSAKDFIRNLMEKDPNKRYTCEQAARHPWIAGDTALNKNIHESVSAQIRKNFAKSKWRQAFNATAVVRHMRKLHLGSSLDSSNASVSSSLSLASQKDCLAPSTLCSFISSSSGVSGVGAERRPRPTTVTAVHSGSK
Chain of FLT3 (P36888 27-993): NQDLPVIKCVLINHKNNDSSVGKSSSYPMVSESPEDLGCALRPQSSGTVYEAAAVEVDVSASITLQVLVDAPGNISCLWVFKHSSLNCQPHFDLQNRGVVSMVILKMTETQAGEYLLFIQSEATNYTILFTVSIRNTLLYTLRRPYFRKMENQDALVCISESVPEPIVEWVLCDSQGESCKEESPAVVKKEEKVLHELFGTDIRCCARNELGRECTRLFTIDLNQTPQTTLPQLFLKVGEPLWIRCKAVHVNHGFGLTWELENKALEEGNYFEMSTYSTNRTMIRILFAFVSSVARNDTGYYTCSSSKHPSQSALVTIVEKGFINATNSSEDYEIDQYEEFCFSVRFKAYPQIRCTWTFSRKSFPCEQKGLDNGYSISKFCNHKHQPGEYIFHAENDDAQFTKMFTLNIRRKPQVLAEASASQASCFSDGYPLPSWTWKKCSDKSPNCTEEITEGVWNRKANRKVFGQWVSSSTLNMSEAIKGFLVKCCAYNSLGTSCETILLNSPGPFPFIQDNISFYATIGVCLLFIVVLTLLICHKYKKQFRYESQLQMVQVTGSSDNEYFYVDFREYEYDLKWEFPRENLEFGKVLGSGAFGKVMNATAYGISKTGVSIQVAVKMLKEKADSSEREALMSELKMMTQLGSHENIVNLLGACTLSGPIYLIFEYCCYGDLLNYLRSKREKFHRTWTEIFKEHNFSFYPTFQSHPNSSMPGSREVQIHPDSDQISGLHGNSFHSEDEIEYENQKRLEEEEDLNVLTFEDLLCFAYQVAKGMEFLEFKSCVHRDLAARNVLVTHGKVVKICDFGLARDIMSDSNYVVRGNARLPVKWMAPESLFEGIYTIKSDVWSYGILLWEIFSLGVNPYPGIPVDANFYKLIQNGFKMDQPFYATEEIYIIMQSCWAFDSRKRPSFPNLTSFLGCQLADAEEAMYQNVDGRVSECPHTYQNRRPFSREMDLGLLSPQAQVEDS
Chain of PRKG2 (Q13237 whole entry): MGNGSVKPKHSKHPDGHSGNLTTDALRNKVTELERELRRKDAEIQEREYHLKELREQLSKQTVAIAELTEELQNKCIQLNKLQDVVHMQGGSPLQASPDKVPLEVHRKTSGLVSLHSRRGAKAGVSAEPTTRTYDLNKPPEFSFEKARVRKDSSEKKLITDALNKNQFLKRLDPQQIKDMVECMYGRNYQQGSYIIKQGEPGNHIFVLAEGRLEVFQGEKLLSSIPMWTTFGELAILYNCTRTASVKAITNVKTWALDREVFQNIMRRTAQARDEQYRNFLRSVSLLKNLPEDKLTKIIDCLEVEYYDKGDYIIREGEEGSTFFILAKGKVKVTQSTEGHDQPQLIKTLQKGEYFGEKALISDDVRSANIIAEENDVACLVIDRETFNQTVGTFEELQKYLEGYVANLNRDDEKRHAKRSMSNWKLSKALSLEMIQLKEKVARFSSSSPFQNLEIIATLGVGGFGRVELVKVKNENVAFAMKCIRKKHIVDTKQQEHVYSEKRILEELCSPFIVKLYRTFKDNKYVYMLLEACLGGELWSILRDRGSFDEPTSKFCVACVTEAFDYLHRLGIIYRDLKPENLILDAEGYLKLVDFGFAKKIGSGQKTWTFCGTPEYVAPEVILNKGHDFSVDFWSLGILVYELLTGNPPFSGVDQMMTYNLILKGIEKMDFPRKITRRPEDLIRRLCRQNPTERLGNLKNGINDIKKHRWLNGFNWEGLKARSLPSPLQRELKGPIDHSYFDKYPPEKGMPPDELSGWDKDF
Chain of CSF1R-autoinhibited (P07333 539-972 limits assumed): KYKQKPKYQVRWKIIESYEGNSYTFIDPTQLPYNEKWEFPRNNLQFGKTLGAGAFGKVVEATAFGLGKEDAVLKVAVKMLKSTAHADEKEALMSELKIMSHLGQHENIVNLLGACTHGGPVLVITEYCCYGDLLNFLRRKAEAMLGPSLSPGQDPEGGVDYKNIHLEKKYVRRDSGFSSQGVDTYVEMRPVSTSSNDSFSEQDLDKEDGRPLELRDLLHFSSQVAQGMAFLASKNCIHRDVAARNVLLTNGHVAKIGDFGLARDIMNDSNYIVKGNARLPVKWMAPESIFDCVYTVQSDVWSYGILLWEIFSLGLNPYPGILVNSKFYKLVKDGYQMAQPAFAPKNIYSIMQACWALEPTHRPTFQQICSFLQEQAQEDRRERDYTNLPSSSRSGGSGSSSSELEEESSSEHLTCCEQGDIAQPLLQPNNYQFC

## CCNc1cc(Nc2ccc(C(=O)N3CCC(N4CCOCC4)CC3)cc2OC)nc2[nH]cc(C#N)c12 [Example 18, 4-(ethylamino)-6-((2-methoxy-4-(4-morpholinopiperidine-1-carbonyl)phenyl)amino)-1H-pyrrolo[2,3-b]pyridine-3-carbonitrile]
EPHA3
  remaining binding at 1 µM: 93%
PRKG2
  remaining binding at 1 µM: 58%
RET(M918T)
  remaining binding at 1 µM: 99%
CAMK1D
  remaining binding at 1 µM: 31%
MKNK1
  remaining binding at 1 µM: 93%
CAMK2D
  remaining binding at 1 µM: 82%
MAP3K4
  remaining binding at 1 µM: 96%
PIK3CA(E542K)
  remaining binding at 1 µM: 96%
IKK-beta
  remaining binding at 1 µM: 77%
NIK
  remaining binding at 1 µM: 25%
EPHA8
  remaining binding at 1 µM: 85%
PRKX
  remaining binding at 1 µM: 92%
MEK4
  remaining binding at 1 µM: 0%
PIK3CA(I800L)
  remaining binding at 1 µM: 100%
ASK1
  remaining binding at 1 µM: 79%
PIM2
  remaining binding at 1 µM: 96%
SGK2
  remaining binding at 1 µM: 64%
ERK3
  remaining binding at 1 µM: 85%
CSF1R-autoinhibited
  remaining binding at 1 µM: 51%
WNK4
  remaining binding at 1 µM: 79%
FLT3
  remaining binding at 1 µM: 83%
TYRO3
  remaining binding at 1 µM: 80%
ADCK3
  remaining binding at 1 µM: 86%
RIOK1
  remaining binding at 1 µM: 94%
OSR1
  remaining binding at 1 µM: 41%
MET(M1250T)
  remaining binding at 1 µM: 100%
PIK3CB
  remaining binding at 1 µM: 89%
PRKCD
  remaining binding at 1 µM: 75%
TNK1
  remaining binding at 1 µM: 81%
KIT(D816V)
  remaining binding at 1 µM: 82%
SYK
  remaining binding at 1 µM: 66%
MLK1
  remaining binding at 1 µM: 100%
CAMKK1
  remaining binding at 1 µM: 70%
MST3
  remaining binding at 1 µM: 88%
LCK
  remaining binding at 1 µM: 96%
CDK4-cyclinD1
  remaining binding at 1 µM: 100%
BRSK2
  remaining binding at 1 µM: 96%
CSNK1A1
  remaining binding at 1 µM: 8.2%
WEE1
  remaining binding at 1 µM: 100%

## CCNc1cc(Nc2ccc(C(=O)N3CCC(N4CCOCC4)CC3)cc2OC)nc2[nH]cc(C(F)(F)F)c12 [Example 57, (4-((4-(ethylamino)-3-(trifluoromethyl)-1H-pyrrolo[2,3-b]pyridin-6-yl)amino)-3-methoxyphenyl) (4-morpholinopiperidin-1-yl)methanone]
EPHA3
  remaining binding at 1 µM: 100%
PRKG2
  remaining binding at 1 µM: 85%
RET(M918T)
  remaining binding at 1 µM: 100%
CAMK1D
  remaining binding at 1 µM: 73%
MKNK1
  remaining binding at 1 µM: 100%
CAMK2D
  remaining binding at 1 µM: 47%
MAP3K4
  remaining binding at 1 µM: 79%
PIK3CA(E542K)
  remaining binding at 1 µM: 100%
IKK-beta
  remaining binding at 1 µM: 100%
NIK
  remaining binding at 1 µM: 82%
EPHA8
  remaining binding at 1 µM: 100%
PRKX
  remaining binding at 1 µM: 80%
MEK4
  remaining binding at 1 µM: 98%
PIK3CA(I800L)
  remaining binding at 1 µM: 69%
ASK1
  remaining binding at 1 µM: 77%
PIM2
  remaining binding at 1 µM: 98%
SGK2
  remaining binding at 1 µM: 100%
ERK3
  remaining binding at 1 µM: 94%
CSF1R-autoinhibited
  remaining binding at 1 µM: 83%
WNK4
  remaining binding at 1 µM: 100%
FLT3
  remaining binding at 1 µM: 100%
TYRO3
  remaining binding at 1 µM: 96%
ADCK3
  remaining binding at 1 µM: 89%
RIOK1
  remaining binding at 1 µM: 94%
OSR1
  remaining binding at 1 µM: 82%
MET(M1250T)
  remaining binding at 1 µM: 100%
PIK3CB
  remaining binding at 1 µM: 100%
PRKCD
  remaining binding at 1 µM: 87%
TNK1
  remaining binding at 1 µM: 100%
KIT(D816V)
  remaining binding at 1 µM: 83%
SYK
  remaining binding at 1 µM: 68%
MLK1
  remaining binding at 1 µM: 100%
CAMKK1
  remaining binding at 1 µM: 59%
MST3
  remaining binding at 1 µM: 84%
LCK
  remaining binding at 1 µM: 90%
CDK4-cyclinD1
  remaining binding at 1 µM: 95%
BRSK2
  remaining binding at 1 µM: 79%
CSNK1A1
  remaining binding at 1 µM: 51%
WEE1
  remaining binding at 1 µM: 100%
